According to patent US20190328753A1, “COMPOSITIONS AND METHODS FOR TREATING OCULAR DISEASES” (priority 2015, published 2019):
“Also recorded” adds a separate entry of the source.

What was measured:
[1] = Solubility of spironolactone; format: physicochemical; conditions: with the help of Pluronic F127
Experimental: The present inventors were able to get spironolactone into solution at 0.015 mg/ml with the help of Pluronic F127.

Corneal epithelial cells [2] = assay: In vitro toxicity / cell morphology in corneal epithelial cells (Example 7); format: cell-based
Experimental: (§1) Corneal epithelial cells were cultured in vitro to about 30% confluence and treated with various dilutions of a 0.025 mg/mL spironolactone eye drop formulation (i.e. 50×, 100×, 500×, 1000×, and 5000×, corresponding to 0.0005 mg/ml, 0.00025 mg/ml, 0.00005 mg/ml, 0.000025 mg/ml, and 0.000005 mg/ml). The cell medium with spironolactone was changed every two days. On the seventh day, the cells were stained for lipids with Oil Red O.
Toxicity to cells was also taken into account. Toxicity in the context of this disclosure refers to any amount of cell death upon exposure to the composition. Little to no toxicity or relatively no toxicity refers to some amount of cell death to no cell death upon exposure to the composition. Alternatively or additionally, the morphology should look phenotypically normal for the cells. Toxicity can be measured quantitatively or qualitatively, in vivo or in vitro. Standard assays, such as an LDH (lactate dehydrogenase) assay, can be used to quantify toxicity of the compositions and to determine a TC50 concentration, i.e., a concentration that results in cell death for 50% of the cells upon exposure of the cells to that concentration. […] As such, a concentration of 0.025 mg/cc or lower appears to be safe. […] Compositions with lower amounts of active agent (e.g., 0.0000025 mg/cc) may be useful for maintaining a patient's condition, without subjecting the patient to long-term toxicity, for example, once the patient has been stabilized by treatment for some amount of time with a higher concentration.

Corneal epithelial cells [3] = assay: Lipid production in corneal epithelial cells, dilutions of 0.025 mg/ml formulation, Oil Red O (Example 7); format: cell-based; conditions: seventh day
Experimental: as §1

ELOVL4 gene expression = assay: RT-PCR of ELOVL4 gene expression in HTCE cells (Example 9); format: cell-based, Human; conditions: 7th day; for ELOVL4 gene expression, induction: normalized
Experimental: HTCE cells were cultured in 6 well plates and grown to about 30% confluence. The cells were then treated with different dilutions of a 0.025 mg/ml Spironolactone eye drop formulation (i.e. 50×, 100×, 500×, 1000×, and 5000×, corresponding to 0.0005 mg/ml, 0.00025 mg/ml, 0.00005 mg/ml, 0.000025 mg/ml, and 0.000005 mg/ml). The medium with different concentrations of Spironolactone was changed every 2 days. On the 7th day, the cells were collected, and the RNA was extracted and subject to RT-PCR analysis for gene expression of ELOVL4, an enzyme involved in the biosynthesis of fatty acids (particularly very long chain fatty acids (VLCFAs)).

[4] = 1000× dilution (0.000025 mg/ml)
[5] = 5000× dilution (0.000005 mg/ml)

CC(=O)SC1CC2=CC(=O)CCC2(C)C2CCC3(C)C(CCC34CCC(=O)O4)C12 (stereo not drawn) [spironolactone, 7α-acetylthio-3-oxo-17α-pregn-4-ene-21,17-carbolactone]
concentration brought into solution [1]: 0.015 mg/mL | in vitro toxicity (Corneal epithelial cells [2]; 0.025 mg/ml): some in vitro toxicity | in vitro toxicity / cell morphology (Corneal epithelial cells [2]; 100× dilution (0.00025 mg/ml)): non confluence and some relative toxicity | in vitro toxicity / cell morphology (Corneal epithelial cells [2]; 500× dilution (0.00005 mg/ml)): confluent nontoxic cell morphology | in vitro toxicity / cell morphology (Corneal epithelial cells [2]; [4]): no in vitro toxicity; also recorded: confluent nontoxic cell morphology | in vitro toxicity / cell morphology (Corneal epithelial cells [2]; [5]): confluent nontoxic cell morphology | lipid production (Oil Red O) (Corneal epithelial cells [3]; [4]): lipid production was still present | lipid production (Oil Red O) (Corneal epithelial cells [3]; [5]): no lipid is being formed | ELOVL4 gene expression, induction (ELOVL4 gene expression; 0.00025 mg/ml (100× dilution)): approximately 2 fold | ELOVL4 gene expression, induction (ELOVL4 gene expression; 0.0005 mg/ml (50× dilution)): approximately 4.5 fold | ELOVL4 gene expression (ELOVL4 gene expression; remaining treatment groups (0.00005, 0.000025, 0.000005 mg/ml)): no change relative to control
